Experiments:
hNcl [1] = molecular target: T1, hNcl (Homo sapiens, UniProt P19338); experiment: Surface plasmon resonance with immobilized hNcl; type: binding; conditions: SPR, 25 °C
Procedure: (§1) A Biacore 3000 optical biosensor was used to conduct Surface Plasmon Resonance (SPR) experiments. Proteins (hNcl and RBD 1,2) were dissolved at 100 µg/mL in 50 mM sodium acetate at a pH 4.5 and injected at a flow rate of 5 µL/min on a research-grade CM5 sensor chip (GE Healthcare, Chicago, IL, USA) to achieve immobilization. A standard amine-coupling protocol was used. Compound 12 was dissolved in 100% DMSO to obtain 4 mM solutions and diluted in […] (v/v) in PBS (10 mM NaH2PO4, 137 mM NaCl, 2.7 mM KCl pH 7.4). The final concentration of DMSO was 0.1% (v/v). This stock solution was used as a starting point to produce a four-concentration points series (0.025, 0.2, 1, and 4 µM). Measurements were performed at 25 °C, using a flow rate of 5 µL/min flow rate and adopting an association time of 60 s; dissociation of the complex was monitored for 300 s. The resulting sensorgrams were elaborated through the BIAevaluation software (GE Healthcare). Thermodynamic constants were calculated by adequately fitting the experimental curves with a single-site bimolecular interaction model.
Target sequence in this assay (P19338 whole entry): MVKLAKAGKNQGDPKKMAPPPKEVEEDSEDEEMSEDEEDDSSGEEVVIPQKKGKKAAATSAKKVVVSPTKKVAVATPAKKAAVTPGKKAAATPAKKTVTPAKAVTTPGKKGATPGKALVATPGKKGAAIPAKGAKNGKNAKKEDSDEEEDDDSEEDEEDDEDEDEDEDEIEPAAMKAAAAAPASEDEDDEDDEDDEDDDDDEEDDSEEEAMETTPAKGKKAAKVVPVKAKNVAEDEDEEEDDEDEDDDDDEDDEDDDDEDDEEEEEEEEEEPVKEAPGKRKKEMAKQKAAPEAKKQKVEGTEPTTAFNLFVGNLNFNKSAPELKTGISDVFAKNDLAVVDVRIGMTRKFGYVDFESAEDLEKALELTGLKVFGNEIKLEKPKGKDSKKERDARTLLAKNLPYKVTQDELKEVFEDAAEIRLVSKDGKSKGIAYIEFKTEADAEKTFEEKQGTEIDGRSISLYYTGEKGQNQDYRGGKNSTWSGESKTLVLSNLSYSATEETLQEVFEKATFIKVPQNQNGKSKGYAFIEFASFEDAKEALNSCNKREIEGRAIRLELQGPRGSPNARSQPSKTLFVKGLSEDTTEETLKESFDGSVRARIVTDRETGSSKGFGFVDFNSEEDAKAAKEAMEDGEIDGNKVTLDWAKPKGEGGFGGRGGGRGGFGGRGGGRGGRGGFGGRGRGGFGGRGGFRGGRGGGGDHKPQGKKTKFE

[2] = molecular target: T2, hNcl fragment consisting of RBD1 and 2 (RBD1,2) (Homo sapiens, UniProt P19338); experiment: Surface plasmon resonance with hNcl fragment RBD1,2; type: binding; conditions: SPR, immobilized RBD1,2, 25 °C
T2 construct: using an hNcl fragment consisting of RBD1 and 2 (RBD1,2)
Procedure: Moreover, to obtain information concerning the protein region involved in the interaction with 12, a new SPR analysis was carried out using an hNcl fragment consisting of RBD1 and 2 (RBD1,2).
as §1

Akt = experiment: Western blot of Akt protein in HeLa cells; type: cell-based, human
hNcl [3] = molecular target: T1, hNcl; experiment: DARTS experiment in HeLa cells; type: cell-based; parameters: endogenous in cells; host or cells: HeLa (cervical carcinoma); conditions: 5 or 20 μM, 2 h, subtilisin
Procedure: HeLa cells were seeded at 1.5 × 10^6 in 100 mm culture dishes and treated with compound 12 (5 or 20 μM) or 0.1% DMSO for 2 h at 37 °C. The HeLa cells were lysed in RIPA buffer (10 mM Tris HCl pH 7.6, 1 mM EDTA, 1% Triton X-100, 0.1% sodium deoxycholate, 0.1% SDS, 140 mM sodium chloride and 1 mM PMSF) supplemented with phosphatase inhibitors. The samples underwent proteolysis with subtilisin (enzyme:lysate 1:6000 w/w) for 30 min, and hydrolysis was stopped by adding Laemmli buffer 4× and incubating the mixture at 95 °C for 5 min. Finally, the samples were fractionated via SDS-PAGE and analyzed by Western blot. Densitometry of bands was performed with the ImageJ software. Experiments were performed in triplicate.
Target sequence in this assay (P19338 2-710): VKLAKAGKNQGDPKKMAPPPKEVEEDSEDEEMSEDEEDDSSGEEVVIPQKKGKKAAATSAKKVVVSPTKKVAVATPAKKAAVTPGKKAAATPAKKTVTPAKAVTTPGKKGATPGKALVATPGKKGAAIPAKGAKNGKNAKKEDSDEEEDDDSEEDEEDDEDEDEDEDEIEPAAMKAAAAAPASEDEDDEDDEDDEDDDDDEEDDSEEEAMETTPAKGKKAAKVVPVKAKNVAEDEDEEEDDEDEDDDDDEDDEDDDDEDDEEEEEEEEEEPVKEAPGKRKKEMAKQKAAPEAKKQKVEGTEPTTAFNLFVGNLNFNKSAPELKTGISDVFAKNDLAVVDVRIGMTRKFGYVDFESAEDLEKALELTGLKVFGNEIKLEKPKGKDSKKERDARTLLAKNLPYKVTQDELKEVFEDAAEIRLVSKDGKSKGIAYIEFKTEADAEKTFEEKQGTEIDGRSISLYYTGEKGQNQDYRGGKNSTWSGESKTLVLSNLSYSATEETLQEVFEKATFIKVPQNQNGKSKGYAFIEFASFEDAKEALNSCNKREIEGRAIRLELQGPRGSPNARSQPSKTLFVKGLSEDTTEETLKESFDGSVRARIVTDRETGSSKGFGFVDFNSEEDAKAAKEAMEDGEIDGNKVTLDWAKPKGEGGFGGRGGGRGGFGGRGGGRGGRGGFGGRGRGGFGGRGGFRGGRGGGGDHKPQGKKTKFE

T2 sequence (P19338 300-466 limits assumed): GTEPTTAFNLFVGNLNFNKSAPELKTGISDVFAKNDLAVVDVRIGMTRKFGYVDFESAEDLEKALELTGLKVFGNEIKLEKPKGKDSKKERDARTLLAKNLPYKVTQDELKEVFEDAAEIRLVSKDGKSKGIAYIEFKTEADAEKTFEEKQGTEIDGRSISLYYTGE

With `CC1(CO)CCCC2(C)C1C(O)CC13CC4C(CC12)C4(C(=O)O)C3` (stereo not drawn) [compound 12, 6,19-dihydroxy-ent-trachiloban-17-oic acid] the koff (hNcl [1]) was 0.0037 ± 0.005 s⁻¹, the Kd (hNcl [1]; read-out: dissociation constant (KD)) was 58 ± 3 nM and the KD [2] was 74 ± 5 nM. The koff [2] was 0.0053 ± 0.009 s⁻¹, the “levels of Akt protein” value (Akt) was “significantly lowers” and the “hNcl resistance to protease action (DARTS)” value (hNcl [3]) was “significant increase”.
